Experimental data as given in patent US8980926B2, “2-aminoindole compounds and methods for the treatment of malaria” (Genzyme Corporation, priority 2009, dated 2015).

Test system: P. falciparum strain 3D7
Assay: In vitro potency against P. falciparum strain 3D7 (SYBR green/DAPI)
Type: cell-based
Settings: Plasmodium falciparum, reductions in parasitemia, read-out: IC50 values

SMILES | IC50 [nM]
NC1=Nc2ccc(Cl)cc2C1(O)C1CC1 (centres unmarked) [Compound 91] | 100 to 500
NC1=Nc2cccc(Cl)c2C1(O)c1cccc2ccccc12 (centres unmarked) [Compound 127] | 500 to 1000
NC1=Nc2ccc(Cl)cc2C1(O)c1ccccc1N1CCOCC1 (centres unmarked) [Compound 119] | 1 to 100
NC1=Nc2ccc(Cl)cc2C1(O)c1cc(F)ccc1OC1CCOCC1 (centres unmarked) [Compound 213] | 1 to 100
CC(C)Sc1ccccc1C1(O)C(N)=Nc2ccc(Cl)cc21 (centres unmarked) [Compound 170] | 1 to 100
CC(C)Oc1ccccc1[C@@]1(O)C(N)=Nc2ccc(Cl)cc21 [Compound 223] | 1 to 100
Cc1ccc(CC2(O)C(N)=Nc3ccc(Cl)cc32)s1 (centres unmarked) [Compound 181] | 1 to 100
CN(C)c1ncccc1C1(O)C(N)=Nc2ccc(Cl)cc21 (centres unmarked) [Compound 236] | 100 to 500
COc1cccc(C2(O)C(N)=Nc3ccc(Cl)cc32)c1OC (centres unmarked) [Compound 73] | 1 to 100
CC(C)Sc1ccc(F)cc1C1(O)C(N)=Nc2ccc(Cl)cc21 (centres unmarked) [Compound 183] | 1 to 100
Cn1cc(CC2(O)C(N)=Nc3ccccc32)c2ccccc21 (centres unmarked) [Compound 128] | 100 to 500
CC(C)c1ccccc1C1(O)C(N)=Nc2ccc(Cl)cc21 (centres unmarked) [Compound 27] | 1 to 100
NC1=Nc2ccc(Cl)cc2C1(O)c1ccc(O)cc1 (centres unmarked) [Compound 85] | 5000 to 15000
NC1=Nc2ccc(Cl)cc2C1(O)c1cc(F)ccc1OC1CC1 (centres unmarked) [Compound 232] | 1 to 100
CCOc1cc(C2(O)C(N)=Nc3ccc(Cl)cc32)c(Cl)cn1 (centres unmarked) [Compound 243] | 1 to 100
CCOc1ccccc1C1(O)C(N)=Nc2ccc(Cl)cc21 (centres unmarked) [Compound 141] | 1 to 100
NC1=Nc2ccc(Cl)cc2C1(O)c1cc(F)ccc1SC1CCC1 (centres unmarked) [Compound 184] | 1 to 100
Cc1ccc2c(c1)C(O)(c1ccccc1C1CC1)C(N)=N2 (centres unmarked) [Compound 256] | 1 to 100
COc1cc(C2(O)C(N)=Nc3ccc(Cl)cc32)c2ccccc2c1 (centres unmarked) [Compound 45] | 5000 to 15000
COc1cc(C2(O)C(N)=Nc3ccc(Cl)cc32)c2c(ccn2C)c1 (centres unmarked) [Compound 44] | 5000 to 15000
COc1ccc2c(c1)C(O)(Cc1ccccc1)C(N)=N2 (centres unmarked) [Compound 133] | 1 to 100
NC1=Nc2ccccc2C1(O)CC12CC3CC(CC(C3)C1)C2 (centres unmarked) [Compound 229] | 100 to 500
CC(C)Oc1ccc(Cl)cc1C1(O)C(N)=Nc2ccc(Cl)cc21 (centres unmarked) [Compound 156] | 1 to 100
CCSc1ccc(OC)cc1C1(O)C(N)=Nc2ccc(Cl)cc21 (centres unmarked) [Compound 196] | 1 to 100

SMILES | IC50 [nM]
COc1ccc2c(c1)C(O)(c1ccccc1N1CCOCC1)C(N)=N2 (centres unmarked) [Compound 167] | 100 to 500
COc1cccc(C2(O)C(N)=Nc3ccc(Cl)cc32)c1 (centres unmarked) [Compound 23] | 100 to 500
NC1=Nc2ccc(Cl)cc2C1(O)c1ccccc1-c1ccccc1 (centres unmarked) [Compound 129] | 100 to 500
NC1=Nc2ccc(-c3ccccc3)cc2C1(O)c1ccccc1 (centres unmarked) [Compound 87] | 100 to 500
CCCOc1cnc(OC)c(C2(O)C(N)=Nc3ccc(Cl)cc32)c1 (centres unmarked) [Compound 218] | 1 to 100
CC(C)[C@@]1(O)C(N)=Nc2ccc(Cl)cc21 [Compound 247] | 100 to 500
NC1=Nc2ccc(Cl)cc2C1(O)c1ccnc2ccccc12 (centres unmarked) [Compound 108] | 100 to 500
NC1=Nc2ccc(Cl)cc2C1(O)c1ccccc1C(F)(F)F (centres unmarked) [Compound 96] | 1 to 100
NC1=Nc2ccc(Cl)cc2C1(O)c1cccc(F)c1 (centres unmarked) [Compound 28] | 100 to 500
COc1cc(C2(O)C(N)=Nc3ccc(Cl)cc32)c(F)cn1 (centres unmarked) [Compound 233] | 100 to 500
NC1=Nc2ccc(Cl)cc2C1(O)c1cncc2ccccc12 (centres unmarked) [Compound 107] | 100 to 500
Cc1ccc2c(c1)C(O)(c1cc(F)cc3ccccc13)C(N)=N2 (centres unmarked) [Compound 268] | 1 to 100
CS(=O)(=O)c1ccc2c(c1)C(O)(c1ccccc1)C(N)=N2 (centres unmarked) [Compound 101] | 5000 to 15000
Cc1csc2c(C3(O)C(N)=Nc4ccc(Cl)cc43)cccc12 (centres unmarked) [Compound 136] | 1 to 100
NC1=Nc2ccc(Cl)c(Cl)c2C1(O)c1ccccc1 (centres unmarked) [Compound 40] | 100 to 500
CN(C)c1cccc(C2(O)C(N)=Nc3ccccc32)c1 (centres unmarked) [Compound 15] | 100 to 500
NC1=Nc2ccccc2C1(O)c1ccc2ccccc2c1 (centres unmarked) [Compound 25] | 100 to 500
NC1=Nc2ccccc2C1(O)c1ccc(N2CCOCC2)cc1 (centres unmarked) [Compound 20] | 500 to 1000
CCOc1cnc(OC)cc1C1(O)C(N)=Nc2ccc(Cl)cc21 (centres unmarked) [Compound 210] | 1 to 100
NC1=Nc2ccc(Cl)cc2C1(O)c1ccccc1N1CCCCCC1 (centres unmarked) [Compound 162] | 1 to 100
CC(C)Oc1ccc(F)c(C2(O)C(N)=Nc3ccc(Cl)cc32)c1 (centres unmarked) [Compound 208] | 1 to 100
COc1cc2c(cc1OC)C(O)(c1ccccc1)C(N)=N2 (centres unmarked) [Compound 56] | 100 to 500
COc1ccc(F)cc1C1(O)C(N)=Nc2ccc(Cl)cc21 (centres unmarked) [Compound 145] | 1 to 100
CC(C)c1ccc2c(c1)C(O)(c1ccccc1)C(N)=N2 (centres unmarked) [Compound 53] | 500 to 1000

SMILES | IC50 [nM]
CN(C)c1ccc(F)cc1C1(O)C(N)=Nc2ccc(Cl)cc21 (centres unmarked) [Compound 192] | 1 to 100
NC1=Nc2c(ccc(Cl)c2Cl)C1(O)c1ccccc1 (centres unmarked) [Compound 46] | 1000 to 5000
Cc1ccccc1C1(O)C(N)=Nc2ccccc21 (centres unmarked) [Compound 30] | 100 to 500
NC1=Nc2ccc(Cl)cc2C1(O)c1cccc2nsnc12 (centres unmarked) [Compound 94] | 1000 to 5000
NC1=Nc2ccc(OC(F)(F)F)cc2C1(O)c1ccccc1 (centres unmarked) [Compound 47] | 1000 to 5000
NC1=Nc2ccc(Cl)cc2C1(O)c1ccccc1C1CC1 (centres unmarked) [Compound 205] | 1 to 100
NC1=Nc2c(Cl)cccc2C1(O)c1ccccc1 (centres unmarked) [Compound 35] | 1000 to 5000
COc1ccc(C2CC2)c(C2(O)C(N)=Nc3ccc(Cl)cc32)c1 (centres unmarked) [Compound 212] | 1 to 100
CCOc1ccc(F)cc1C1(O)C(N)=Nc2ccc(C)cc21 (centres unmarked) [Compound 249] | 1 to 100
Cc1ccc2c(c1)C(O)(c1cc(Cl)ccc1OC(C)C)C(N)=N2 (centres unmarked) [Compound 245] | 1 to 100
NC1=Nc2ccc(Cl)cc2C1(O)c1ccccc1N1CCCCC1 (centres unmarked) [Compound 130] | 100 to 500
COc1ccc(OC(C)(C)C)c(C2(O)C(N)=Nc3ccc(Cl)cc32)c1 (centres unmarked) [Compound 177] | 1 to 100
NC1=Nc2ccc(Cl)cc2C1(O)c1ccc(Cl)cc1 (centres unmarked) [Compound 98] | 100 to 500
CCc1ccccc1C1(O)C(N)=Nc2ccc(Cl)cc21 (centres unmarked) [Compound 97] | 1 to 100
NC1=Nc2ccc(Cl)cc2C1(O)c1cc(F)ccc1F (centres unmarked) [Compound 198] | 100 to 500
NC1=Nc2ccc(Br)cc2C1(O)Cc1ccccc1 (centres unmarked) [Compound 124] | 100 to 500
Cn1c(C2(O)C(N)=Nc3ccc(Cl)cc32)nc2cc(Br)ccc21 (centres unmarked) [Compound 241] | 100 to 500
COc1ncccc1C1(O)C(N)=Nc2ccc(Cl)cc21 (centres unmarked) [Compound 239] | 100 to 500
CCOc1cc(F)c(Cl)cc1C1(O)C(N)=Nc2ccc(C)cc21 (centres unmarked) [Compound 265] | 1 to 100
NC1=Nc2ccc(OCc3ccccc3)cc2C1(O)c1ccccc1 (centres unmarked) [Compound 65] | 5000 to 15000
CC(C)[C@]1(O)C(N)=Nc2ccc(Cl)cc21 [Compound 246] | 100 to 500
CC(C)(C)Sc1ccc(F)c(C2(O)C(N)=Nc3ccc(Cl)cc32)c1 (centres unmarked) [Compound 188] | 100 to 500
Cn1cc2cc(Cl)cc(C3(O)C(N)=Nc4ccc(Cl)cc43)c2n1 (centres unmarked) [Compound 252] | 1 to 100
